From PMC5598323 (Toxicology Reports, 2015)
Where two headings read alike, the source gives them in different places.

Tests used:
[1] = stated in discussion, no experiment and reference not given, cited from earlier work
CYP3A4 = CYP3A4 (Homo sapiens, UniProt P08684); assay: CYP3A4 testosterone 6β-hydroxylase assay in human liver microsomes; assay type: in vitro ADME; settings: for inhibition of CYP3A4 in HLM (in words): even upto 50 μM concentrations
CYP2C9 = CYP2C9 (Homo sapiens, UniProt P11712); assay: CYP2C9 diclofenac 4′-hydroxylation assay in human liver microsomes; settings: for inhibition of CYP2C9 in HLM (in words): even upto 50 μM concentrations
Chain of CYP2C9 (P11712 whole entry): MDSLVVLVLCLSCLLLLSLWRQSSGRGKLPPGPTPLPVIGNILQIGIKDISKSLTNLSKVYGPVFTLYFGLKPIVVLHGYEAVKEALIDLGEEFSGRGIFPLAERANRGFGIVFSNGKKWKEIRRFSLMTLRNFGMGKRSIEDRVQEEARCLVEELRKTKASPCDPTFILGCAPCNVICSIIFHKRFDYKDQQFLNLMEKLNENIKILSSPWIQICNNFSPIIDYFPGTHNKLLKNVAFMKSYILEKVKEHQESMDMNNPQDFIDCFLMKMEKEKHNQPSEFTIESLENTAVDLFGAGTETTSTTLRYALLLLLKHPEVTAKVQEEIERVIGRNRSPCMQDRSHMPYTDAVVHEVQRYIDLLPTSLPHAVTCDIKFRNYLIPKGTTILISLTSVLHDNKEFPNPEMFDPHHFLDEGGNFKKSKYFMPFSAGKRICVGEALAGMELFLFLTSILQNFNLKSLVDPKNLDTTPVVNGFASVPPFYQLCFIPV

CYP1A enzyme [2] = settings: human liver microsomes; cited from earlier work
CYP2D6 = CYP2D6 (Homo sapiens, UniProt P10635); assay: CYP2D6 dextromethorphan O-demethylation assay in human liver microsomes; assay type: in vitro ADME; settings: for inhibition of CYP2D6 in HLM (in words): even upto 50 μM concentrations
Chain of CYP2D6 (P10635 whole entry): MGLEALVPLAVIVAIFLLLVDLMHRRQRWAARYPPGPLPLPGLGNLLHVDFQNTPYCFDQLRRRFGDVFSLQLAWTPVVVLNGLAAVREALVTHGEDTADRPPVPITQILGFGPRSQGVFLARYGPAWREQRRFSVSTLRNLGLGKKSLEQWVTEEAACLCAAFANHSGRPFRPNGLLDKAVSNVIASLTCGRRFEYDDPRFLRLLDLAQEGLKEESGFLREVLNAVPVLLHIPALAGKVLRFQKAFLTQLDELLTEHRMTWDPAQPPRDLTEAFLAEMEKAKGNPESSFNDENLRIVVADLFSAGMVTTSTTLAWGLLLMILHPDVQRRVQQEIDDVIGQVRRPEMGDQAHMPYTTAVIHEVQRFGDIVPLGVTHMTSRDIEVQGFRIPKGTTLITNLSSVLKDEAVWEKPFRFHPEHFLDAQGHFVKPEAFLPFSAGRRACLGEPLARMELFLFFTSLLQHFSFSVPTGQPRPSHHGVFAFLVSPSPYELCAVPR

CYP1A enzyme [3] = settings: rat liver microsomes; cited from earlier work
[4] = IC50 values CYP3A4 (in μg/ml, in brackets), HLM, μM bound converted to μg/ml
[5] = IC50 values CYP3A4, HLM, testosterone 100 μM, tested 1–50 μM
[6] = IC50 values CYP2C9 (in μg/ml, in brackets), HLM, μM bound converted to μg/ml
[7] = IC50 values CYP2C9, HLM, diclofenac 50 μM, tested 1–50 μM
[8] = IC50 values CYP2D6 (in μg/ml, in brackets), HLM, μM bound converted to μg/ml
[9] = IC50 values CYP2D6, HLM, dextromethorphan 8 μM, tested 1–50 μM

Chain of CYP3A4 (P08684 whole entry): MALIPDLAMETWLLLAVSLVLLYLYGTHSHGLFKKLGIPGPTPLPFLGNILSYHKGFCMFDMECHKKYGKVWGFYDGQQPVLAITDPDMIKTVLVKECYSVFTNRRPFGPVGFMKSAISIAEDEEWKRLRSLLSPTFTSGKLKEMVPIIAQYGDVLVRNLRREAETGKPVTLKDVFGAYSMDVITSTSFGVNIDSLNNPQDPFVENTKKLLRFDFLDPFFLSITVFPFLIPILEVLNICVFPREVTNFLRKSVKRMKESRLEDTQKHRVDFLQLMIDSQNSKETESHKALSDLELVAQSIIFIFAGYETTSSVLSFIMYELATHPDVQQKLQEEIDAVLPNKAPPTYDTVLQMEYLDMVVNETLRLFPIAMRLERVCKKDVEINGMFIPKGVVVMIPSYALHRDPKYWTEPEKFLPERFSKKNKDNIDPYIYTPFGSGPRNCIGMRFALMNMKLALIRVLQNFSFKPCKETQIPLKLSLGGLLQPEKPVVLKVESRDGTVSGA

Row | IC50 (CYP3A4; [4]) [µM] | IC50 (CYP3A4; [5]) [µM] | inhibition of CYP3A4 in HLM (in words) (CYP3A4) | IC50 (CYP2C9; [6]) [µM] | IC50 (CYP2C9; [7]) [µM] | inhibition of CYP2C9 in HLM (in words) (CYP2C9) | IC50 (CYP2D6; [8]) [µM] | IC50 (CYP2D6; [9]) [µM] | inhibition of CYP2D6 in HLM (in words) (CYP2D6) | Structure (SMILES) | solubility in methanol [1] | solubility in water ([1]; water) | inhibition of CYP1A enzyme (in words) (CYP1A enzyme [2]) | inhibition of CYP1A enzyme (in words) (CYP1A enzyme [3]) | solubility in hexane ([1]; hexane)
1 | > 51.2 | > 50 | no significant inhibition | > 51.2 | > 50 | no significant inhibition | > 51.2 | > 50 | no significant inhibition | CC1(C)CC[C@]2(C(=O)O)CC[C@]3(C)C(=CC[C@@H]4[C@@]5(C)C[C@@H](O)[C@H](O)C(C)(C)[C@@H]5CC[C@]43C)[C@@H]2[C@@H]1O [Arjunic acid] | freely soluble | insoluble | did not show inhibition | did not show inhibition | –
2 | > 49.5 | > 50 | no significant inhibition | > 49.5 | > 50 | no significant inhibition | > 49.5 | > 50 | no significant inhibition | CC1(C)CC[C@]2(C(=O)O)CC[C@]3(C)C(=CC[C@@H]4[C@@]5(C)C[C@@H](O)[C@H](O)[C@@](C)(CO)[C@@H]5CC[C@]43C)[C@@H]2[C@@H]1O [Arjungenin, arjungenin] | freely soluble | – | did not show inhibition | did not show inhibition | insoluble
